≈ marks a conversion by molar mass, not a printed value. Where two headings read alike, the source gives them in different places.
How the values were obtained:
C. jejuni 81–176 = assay: Minimum inhibitory concentration (MIC), two-fold serial dilution, OD600 end point; assay type: cell-based; details: Campylobacter jejuni, 24 h, read-out: C. jejuni MIC (minimum inhibitory concentration)
Description: A primary screen was conducted using the highly invasive C. jejuni strain 81–176 originally isolated from a diarrheic patient (Korlath et al., [1985]). The C. jejuni strains were routinely grown on Mueller-Hinton (MH; Becton Dickinson and Company, MD) agar under microaerobic conditions (85% N2, 10% CO2, and 5% O2) in a DG250 Microaerophilic Workstation (Microbiology International, MD) for 18 h, washed with MH broth and adjusted to a final OD600 of 0.1 in MH broth. One hundred micro liter of culture was transferred to 96-well plates and 1 μL (200 μM/μL) of library compounds and controls were added using a pin tool (Wallace et al., [2011]). Growth controls including DMSO (1% final concentration), kanamycin (50 μg), and chloramphenicol (20 μg) were added to duplicate wells along with 100 μL un-inoculated MH broth as sterility control. The final concentration was 200 μM for each small molecule. Prior to growth, an aluminum foil was applied (to avoid drug degradation) and plates were then incubated at 42°C, under microaerobic conditions for 24 h. The end-point OD600 was measured in a Sunrise TM Tecan plate reader (Tecan Group Ltd. San Jose, CA). We initially tried to exploit the automatic kinetic OD reader option of the Sunrise TM Tecan system but were un-successful. Maintenance of the microaerophilic growth conditions required by C. jejuni was difficult in the Tecan reader which is ideally suited for aerobic bacteria. Therefore, we used an end point assay. The quality of high-throughput screen (HTS) was evaluated by calculating the Z′-factor as described previously (Zhang et al., [1999]). Z′-factor is defined as 1−((3σp + 3σn)/|μp − μn|)) where “σp” and “σn” are the standard deviations of the positive (culture+ DMSO) and negative (culture+antibiotics) controls, respectively and “μp” and “μn” are the means of the positive and negative controls, respectively. A Z′-factor >0.5 indicates a robust assay (Zhang et al., [1999]).
The percentage of C. jejuni growth inhibition was calculated as mentioned previously (De La Fuente et al., [2006]) using the following formula: percentage of inhibition = 100 × (OD negative control–OD test compound)/(OD negative control–OD positive control). Compounds that inhibited Campylobacter growth ≥ 99.0% were selected as primary hits. The culture in wells with ≥ 99% growth inhibition were streaked onto fresh MH agar, as were the sterility, antibiotic and no compound control wells. Bacterial growth was measured on the plate after 48 h at 42°C. Based on the recovery of C. jejuni on MH agar plates, the compound was classified as either “bacteriostatic” or “bactericidal.”
The dose-dependent effect of 35 compounds against the highly pathogenic C. jejuni 81–176 strain was tested. Compounds were two-fold serially diluted (200 to 12.5 μM). One hundred micro liter of the OD600 0.1 adjusted C. jejuni culture was pipetted in to each well of a 96 well plate, treated with 1 μL of diluted compound and the plate was incubated at 42°C under microaerobic conditions for 24 h. Growth inhibition was assessed as above.
The minimal concentrations of compounds that inhibit the growth of C. jejuni were tested by two-fold serial dilution of each of compound in media as well as in DMSO. The results were reproducible irrespective of diluent used; however, a few compounds precipitated when media was used as a diluent. A recent study also described the in-solubility issues with a few small molecule compounds when dissolved in media for MIC determination (Selin et al., [2015]). […] Among the 21 compounds, 16 were effective at 50 μM, 7 were effective at 25 μM, and 4 were effective at 12.5 μM. We selected top-12 bactericidal compounds with MICs varying from 100 to 12.5 μM concentration for further downstream study.

[1] = system: C. jejuni 81-176 in Caco-2 cells; assay: Intracellular survival / in vitro clearance of C. jejuni in infected Caco-2 cells; assay type: cell-based, Campylobacter jejuni; details: for Intracellular Campylobacter load (below detection limit): 50 μM, 24 h; for minimal effective concentration: Campylobacter jejuni, C. jejuni 81–176 infected Caco-2 cells, compounds at 200, 100, 50, 25 μM for 24 h, read-out: In vitro Concentration (in vitro clearance ability)
Description: To test the effect of selected compounds on C. jejuni in vitro clearance, Caco-2 cells were infected with C. jejuni 81-176 strain and a 96 well intracellular survival assay was performed as described previously (Malde et al., [2014]; Pina-Mimbela et al., [2015]). Briefly, a mid-log phase C. jejuni 81–176 culture was pelleted by centrifuging at 9500 × g for 10 min and washed three times with Dulbecco Phosphate Buffer Saline (DPBS, Gibco) containing 1% (v/v) FBS and adjusted to the desired OD600. Approximately 1.4 × 10^5 Caco-2 cells/well were seeded in 100 μL of media containing varying concentration of compounds into each well of a 96 well plate and subsequently infected with C. jejuni at multiplicity of infection (MOI) 100 in duplicate wells. To determine clearance, Caco-2 cells were incubated with bacteria for 3 h and treated with gentamicin (150 μg/mL) and incubated for additional 2 h. Cells were washed three times with DPBS with no calcium or magnesium and incubated with 1 μL of diluted compounds (200, 100, 50, and 25 μM) for 24 h. Infected cells were washed twice with MEM, lysed with 0.1% (v/v) Triton-X 100. Subsequently, 100 μL of an aliquot from each well was 10-fold serially diluted in MEM and plated on MH agar in duplicate to determine CFUs. The appropriate controls included; (i) infected Caco-2 cell treated with kanamycin or chloramphenicol, (ii) infected Caco-2 cells treated with 1 μL of 100% Trition-X, (iii) infected Caco-2 treated with 1 μL of 100% DMSO. Two independent experiments were carried with duplicate treatments in each experiment and the average CFU value was used to plot the graph.
The in vitro clearance ability and cytotoxicity of compounds were analyzed using one-way analysis of variance with mean separation by a least significant difference test at 5% level of significance in GraphPad Prism version 6 software.

[2] = C. jejuni 81–176, 42°C microaerobic, dilution 200 to 12.5 μM

## COc1ccc(CN2CCN(c3ccc(F)cc3)CC2)cc1C [Comp 2]
C. jejuni 81–176
  MIC: 100 µM (≈ 31.4 µg/mL)

## Cc1c(C(C)NCc2cccc(OC3CCCC3)c2)cnn1-c1ccccc1 (centres unmarked) [Comp 10]
[1]
  Intracellular Campylobacter load (below detection limit): ≤ 10 bacteria/mL
  minimal effective concentration: 50 µM
C. jejuni 81–176; [2]
  MIC: 50 µM (≈ 18.8 µg/mL)

## O=S(=O)(Nc1cccc(C(F)(F)F)c1)c1ccc(Br)cc1 [Comp 1]
[1]
  minimal effective concentration: 200 µM
C. jejuni 81–176; [2]
  MIC: 50 µM (≈ 19 µg/mL)

## Cc1ccc(N2CCN(C/C=C/c3ccccc3)CC2)cc1 [Comp 5]
[1]
  minimal effective concentration: > 200 µM
C. jejuni 81–176; [2]
  MIC: 50 µM (≈ 14.6 µg/mL)

## CN(C)c1ccc(CN2CCN(c3ccccc3Cl)CC2)cc1 [Comp 3]
C. jejuni 81–176
  MIC: 12.5 µM (≈ 4.12 µg/mL)

## CN(Cc1ccccc1)CC1CCCN(CCc2ccc(F)cc2)C1 (centres unmarked) [Comp 18]
[1]
  minimal effective concentration: 100 µM
C. jejuni 81–176; [2]
  MIC: 25 µM (≈ 8.51 µg/mL)

## CC(=O)Nc1ccc(CN(C)CC2CCCN(CCc3cccc(C(F)(F)F)c3)C2)cc1 (centres unmarked) [Comp 22]
[1]
  minimal effective concentration: 100 µM
C. jejuni 81–176; [2]
  MIC: 12.5 µM (≈ 5.59 µg/mL)

## CN(Cc1cccc2cnccc12)CC1CCCN(CCc2ccc(F)cc2)C1 (centres unmarked) [Comp 13]
[1]
  minimal effective concentration: > 200 µM
[1]; infected Caco-2 cells, overall
  Intracellular C. jejuni clearance (in vitro effect): lacked in vitro effect
C. jejuni 81–176; [2]
  MIC: 12.5 µM (≈ 4.89 µg/mL)

## COc1ccc(CNCc2ccc(Cl)s2)cc1OCC(O)CN1CCCC1 (centres unmarked) [Comp 12]
[1]
  minimal effective concentration: 100 µM
C. jejuni 81–176; [2]
  MIC: 100 µM (≈ 41.1 µg/mL)

## O=c1c(Cl)c(Cl)cnn1-c1ccccc1Cl [Comp 7]
[1]; 25 μM (eight-fold dilution)
  Intracellular Campylobacter clearing ability: complete intracellular Campylobacter clearing ability
[1]
  Intracellular Campylobacter load (below detection limit): ≤ 10 bacteria/mL
  minimal effective concentration: 25 µM
C. jejuni 81–176; [2]
  MIC: 12.5 µM (≈ 3.44 µg/mL)

## Clc1ccc(N2CCN(Cc3ccsc3)CC2)cc1 [Comp 4]
[1]
  minimal effective concentration: > 200 µM
C. jejuni 81–176; [2]
  MIC: 50 µM (≈ 14.6 µg/mL)

## CN(CC(O)COc1ccccc1CNC1(c2ccccc2)CC1)C1CCCCC1 (centres unmarked) [Comp 17]
[1]
  minimal effective concentration: > 200 µM
C. jejuni 81–176; [2]
  MIC: 12.5 µM (≈ 5.11 µg/mL)
